For 21 molecules, EC50 results are on record in ChEMBL document CHEMBL1177772, “Design and synthesis of benzoazepin-2-one analogs as allosteric binders targeting the PIF pocket of PDK1” (Bioorg Med Chem Lett, 2010).

Residues, ends and D or L forms follow the SMILES beside them.

The first experiment addresses T1, 3-phosphoinositide-dependent protein kinase 1 (Homo sapiens, UniProt O15530).
T1 sequence (O15530 whole entry): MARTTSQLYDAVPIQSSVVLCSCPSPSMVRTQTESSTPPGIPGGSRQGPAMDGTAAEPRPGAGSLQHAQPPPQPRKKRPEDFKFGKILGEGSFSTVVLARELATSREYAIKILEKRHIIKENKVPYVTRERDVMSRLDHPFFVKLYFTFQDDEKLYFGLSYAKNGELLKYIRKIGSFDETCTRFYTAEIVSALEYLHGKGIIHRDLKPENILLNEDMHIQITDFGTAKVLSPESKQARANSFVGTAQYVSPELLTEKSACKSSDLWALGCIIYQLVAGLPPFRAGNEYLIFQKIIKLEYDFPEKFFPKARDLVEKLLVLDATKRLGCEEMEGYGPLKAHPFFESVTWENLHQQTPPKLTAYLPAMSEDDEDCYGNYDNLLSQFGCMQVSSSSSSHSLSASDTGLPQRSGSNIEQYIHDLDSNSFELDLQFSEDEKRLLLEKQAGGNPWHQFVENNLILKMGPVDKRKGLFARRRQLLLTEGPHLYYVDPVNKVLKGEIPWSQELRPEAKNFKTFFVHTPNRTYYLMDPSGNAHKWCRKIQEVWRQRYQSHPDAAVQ
As to the kind of experiment: Displacement of PIFtide from His-tagged PDK1 by HTRF assay.
Conditions: not given; call rule not given here
For orientation: In TR-FRET formats the signal depends on donor and acceptor labels being close together.
For orientation: EC50 means the concentration at which the effect is half-maximal. For `COC(=O)CN1C(=O)C(NS(=O)(=O)c2ccccc2)CCc2ccccc21` (stereo unspecified), the EC50 entry was “Not Active”.
The same measure, in the same setting: in the case of `COC(=O)CN1C(=O)N(Cc2ccccc2)CCc2ccccc21` it was “Not Active”; in that of `O=C(O)CN1C(=O)N(Cc2ccccc2)CCc2ccccc21`, “Not Active”; in that of `COC(=O)CN1C(=O)C(OC(=O)c2ccccc2)CCc2ccccc21` (stereo unspecified), “Not Active”.
Same read-out and setting: in the case of `COC(=O)CN1C(=O)C(Nc2ccccc2)CCc2ccccc21` (stereo unspecified) it was “Not Active”; in that of `O=C(O)CN1C(=O)C(NS(=O)(=O)c2ccccc2)CCc2ccccc21` (stereo unspecified), “Not Active”.
Same read-out and setting: in the case of `O=C(O)CN1C(=O)C(NC(=O)c2ccccc2)CCc2ccccc21` (stereo unspecified) it was “Not Active”; in that of `O=C(O)CN1C(=O)C(Oc2ccccc2)CCc2ccccc21` (stereo unspecified), “Not Active”; in that of `O=C(O)CN1C(=O)C(OC(=O)c2ccccc2)CCc2ccccc21` (stereo unspecified), “Not Active”.
For `COC(=O)CN1C(=O)C(Sc2ccccc2)CCc2ccccc21` (stereo unspecified), the EC50 result is “Not Active”.
In the case of `COC(=O)CN1C(=O)C(NC(=O)c2ccccc2)CCc2ccccc21` (stereo unspecified), the concentration giving a half-maximal response (EC50) result is “Not Active”.
Turning to `COC(=O)CN1C(=O)C(Oc2ccccc2)CCc2ccccc21` (stereo unspecified), the EC50 entry was “Not Active”.

Staying with this experiment, now noted: read-out: EC50.
Regarding `O=C(O)CN1C(=O)C(Sc2ccc(Cl)cc2Cl)CCc2ccccc21` (stereo unspecified), the EC50 worked out at 75 µM.
Turning to `O=C(O)CN1C(=O)C(Sc2ccc(Cl)cc2)CCc2ccccc21` (stereo unspecified), the EC50 came out at 23 µM.
The same measure, in the same setting: in the case of `O=C(O)CSC(CC(=O)c1ccc(Cl)cc1)c1ccccc1` (stereo unspecified) it was 133 µM; in that of `CC[C@H](C)[C@H](NC(=O)[C@H](Cc1ccc(O)cc1)NC(=O)[C@H](CC(=O)O)NC(=O)[C@H](Cc1ccccc1)NC(=O)[C@H](CC(=O)O)NC(=O)[C@H](CCCNC(=N)N)NC(=O)[C@H](Cc1ccccc1)NC(=O)[C@H](CCSC)NC(=O)[C@H](CCC(=O)O)NC(=O)[C@@H](N)CCC(N)=O)C(=O)N[C@@H](C)C(=O)N[C@@H](CC(=O)O)C(=O)N[C@@H](Cc1c[nH]c2ccccc12)C(=O)O` (H-QEMFRDFDYIADW-OH), 10 µM; in that of `COc1ccc(SC2CCc3ccccc3N(CC(=O)O)C2=O)cc1` (stereo unspecified), 53 µM.
Still for that read-out and setting: in the case of `O=C(O)CN1C(=O)C(Nc2ccccc2)CCc2ccccc21` (stereo unspecified) it was 900 µM; in that of `O=C(O)CN1C(=O)C(Sc2ccccc2)CCc2ccccc21` (stereo unspecified), 101 µM; in that of `O=C(O)CN1C(=O)C(Sc2c(Cl)cccc2Cl)CCc2ccccc21` (stereo unspecified), 45 µM.
On the same count and under the same terms, in the case of `O=C(O)CN1C(=O)C(Sc2ccc(C(=O)O)cc2)CCc2ccccc21` (stereo unspecified) it was 187 µM.
